Data: ChEMBL document CHEMBL3286285, “A novel 2-oxoindolinylidene inhibitor of bacterial MurD ligase: Enzyme kinetics, protein-inhibitor binding by NMR and a molecular dynamics study” (Eur J Med Chem, 2014)
Values after ≈ are worked out from the molar mass of the structure shown. Active and inactive are the calls of the source. The calls are words filed in the database; no cut-off is given here.

Tests used:
[1] = target: T1, UDP-N-acetylmuramoylalanine--D-glutamate ligase (Escherichia coli K-12, UniProt P14900); experiment: Binding affinity to 6x His-tagged and 15N/13C-labeled Escherichia coli MurD ligase measured at NMR signal 9 by 1H/13C-HSQC 2D NMR spectroscopy
T1 sequence (P14900 whole entry): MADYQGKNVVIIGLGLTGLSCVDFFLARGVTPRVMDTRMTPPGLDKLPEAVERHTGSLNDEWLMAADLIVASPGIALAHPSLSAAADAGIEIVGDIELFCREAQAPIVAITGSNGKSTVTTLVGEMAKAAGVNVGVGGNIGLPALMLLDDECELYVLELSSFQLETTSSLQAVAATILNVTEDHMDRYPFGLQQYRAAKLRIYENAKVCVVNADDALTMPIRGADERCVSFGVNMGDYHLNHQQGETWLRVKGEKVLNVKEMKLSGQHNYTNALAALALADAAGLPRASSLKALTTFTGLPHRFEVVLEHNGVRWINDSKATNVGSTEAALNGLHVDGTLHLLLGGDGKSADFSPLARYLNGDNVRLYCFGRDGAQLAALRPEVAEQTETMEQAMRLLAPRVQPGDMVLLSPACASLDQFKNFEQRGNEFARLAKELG

[2] = target: T1, UDP-N-acetylmuramoylalanine--D-glutamate ligase; experiment: Binding affinity to 6x His-tagged and 15N/13C-labeled Escherichia coli MurD ligase measured at NMR signal 13 by 1H/13C-HSQC 2D NMR spectroscopy
[3] = target: T1, UDP-N-acetylmuramoylalanine--D-glutamate ligase; experiment: Binding affinity to 6x His-tagged and 15N/13C-labeled Escherichia coli MurD ligase measured at NMR signal 56 by 1H/13C-HSQC 2D NMR spectroscopy
[4] = system: Streptococcus pneumoniae; experiment: Antibacterial activity against Streptococcus pneumoniae ATCC 49619 by broth microdilution method; type: functional
[5] = system: Haemophilus influenzae; experiment: Antibacterial activity against Haemophilus influenzae Lek 93 by broth microdilution method; type: functional
[6] = target: T1, UDP-N-acetylmuramoylalanine--D-glutamate ligase; experiment: Competitive inhibition of Escherichia coli MurD ligase activity using UDP-N-acetylmuramyl-L-alanine as a substrate
[7] = system: Escherichia coli; experiment: Antibacterial activity against Escherichia coli ATCC 25922 by broth microdilution method; type: functional
[8] = system: Escherichia coli; experiment: Antibacterial activity against Escherichia coli ATCC 35218 by broth microdilution method; type: functional
[9] = system: Haemophilus influenzae; experiment: Antibacterial activity against Haemophilus influenzae ATCC 49247 by broth microdilution method; type: functional
[10] = system: Staphylococcus aureus; experiment: Antibacterial activity against Staphylococcus aureus ATCC 25923 by broth microdilution method; type: functional
[11] = system: Streptococcus pyogenes; experiment: Antibacterial activity against Streptococcus pyogenes ATCC 19615 by broth microdilution method; type: functional
[12] = system: Enterococcus faecalis; experiment: Antibacterial activity against Enterococcus faecalis ATCC 29212 by broth microdilution method; type: functional
[13] = target: T2, UDP-N-acetylmuramoylalanine--D-glutamate ligase (Escherichia coli K-12) (UniProt P14900); experiment: Binding affinity to Escherichia coli MurD ligase by saturation transfer difference NMR spectroscopy
T2 sequence (whole entry): T1 sequence (P14900 whole entry)

[14] = target: T2, UDP-N-acetylmuramoylalanine--D-glutamate ligase (Escherichia coli K-12); experiment: Binding affinity to Escherichia coli MurD ligase by transferred NOESY NMR spectroscopy
[15] = target: T1, UDP-N-acetylmuramoylalanine--D-glutamate ligase; experiment: Binding affinity to 6x His-tagged and 15N/13C-labeled Escherichia coli MurD ligase by 1H/13C-HSQC 2D NMR spectroscopy
[16] = target: T1, UDP-N-acetylmuramoylalanine--D-glutamate ligase; experiment: Binding affinity to 6x His-tagged and 15N/13C-labeled Escherichia coli MurD ligase measured at NMR signal 4 by 1H/13C-HSQC 2D NMR spectroscopy
[17] = target: T1, UDP-N-acetylmuramoylalanine--D-glutamate ligase; experiment: Binding affinity to 6x His-tagged and 15N/13C-labeled Escherichia coli MurD ligase measured at NMR signal 43 by 1H/13C-HSQC 2D NMR spectroscopy
[18] = target: T1, UDP-N-acetylmuramoylalanine--D-glutamate ligase; experiment: Binding affinity to 6x His-tagged and 15N/13C-labeled Escherichia coli MurD ligase measured at NMR signal 71 by 1H/13C-HSQC 2D NMR spectroscopy
[19] = target: T1, UDP-N-acetylmuramoylalanine--D-glutamate ligase; experiment: Binding affinity to 6x His-tagged and 15N/13C-labeled Escherichia coli MurD ligase measured at NMR signal 123 by 1H/13C-HSQC 2D NMR spectroscopy

| Kd [1] [µM] | Kd [2] [µM] | Kd [3] [µM] | MIC [4] [µg/mL] | MIC [5] [µg/mL] | Ki [6] [µM] | MIC [7] [µg/mL] | MIC [8] [µg/mL] | MIC [9] [µg/mL] | MIC [10] [µg/mL] | MIC [11] [µg/mL] | MIC [12] [µg/mL] | Activity [13] | Kd [15] [µM] | Kd [16] [µM] | Kd [17] [µM] | Kd [18] [µM] | Kd [19] [µM] | SMILES | Activity [14] |
| --- | --- | --- | --- | --- | --- | --- | --- | --- | --- | --- | --- | --- | --- | --- | --- | --- | --- | --- | --- |
| 2.2 | 7 | 5.5 | – | – | – | – | – | – | – | – | – | – | – | – | – | – | – | N#Cc1ccc(COc2ccc3cc(S(=O)(=O)N[C@H](CCC(=O)O)C(=O)O)ccc3c2)c(F)c1 | – |
| – | – | – | > 128 | > 128 | 115 | > 128 | > 128 | 128 (≈ 299 µM) | > 128 | > 128 | 128 (≈ 299 µM) | Active | 98 | 111 | 79 | 106 | – | O=C1Nc2ccc([N+](=O)[O-])cc2/C1=C1/SC(=S)N(NC(=O)c2cccnc2)C1=O | Active |
| – | – | – | – | – | – | – | – | – | – | – | – | – | – | 210 | – | – | 120 | CCCCOc1ccc2cc(S(=O)(=O)N[C@H](CCC(=O)O)C(=O)O)ccc2c1 | – |
